The test system of data set [1] is KB cancer cells. Kind of data set: cells. The class given is cell-based. Here is the method: KB cancer cells were collected and seeded in 24-well plates at a density of 30,000 cells per well in 2 mL of medium, and cultured for 24 hours. Then, the serial dilutions of compound C-1 obtained in Example 108 were treated from 30 nM to 0.0096 nM, the serial dilutions of compound C-2 obtained in Example 109 were treated from 1000 nM to 0.32 nM, serial dilutions of the compound C-3 obtained in Example 110 and the compound C-7 obtained in Example 114 were treated from 25 nM to 0.0016 nM, and serial dilutions of the drug MMAF-OMe were treated from 10 nM to 0.0097 nM. The serial dilutions of compounds C-5 and C-6 obtained in Example 112 and Example 113 were treated from 100 nM to 0.0001 nM, and the serial dilutions of drug seco-DUBA were treated from 100 nM to 0.001 nM. Serial dilutions of the compounds C-4 and C-9 obtained in Example 111 and Example 116 were treated from 1000 nM to 0.001 nM, and the serial dilutions of drug CBI dimer were treated by from 10 nM to 0.00001 nM. Serial dilutions of the compound C-8 obtained in Example 115 and the drug CBI-indole were treated from 100 nM to 0.0001 nM. After 72 hours, 96 hours, or 144 hours of incubation, 0.2 mL of 3-(4,5-dimethylthiazol-2-yl)-2,5-diphenyltetrazolium bromide (MTT) dye, dissolved in PBS buffer solution (5 mg/mL), was added to each well of the plates. The formazans formed by reduction of the MTT dye by mitochondrial oxidoreductases in the living cells were dissolved in DMSO, and measured using the absorbance at 550 nm.

Data set [2] has as its target Escherichia coli β-galactosidase (Escherichia coli, UniProt P00722). Nature of the data set: in vitro. The following applies: recombinant enzyme, pH 7.4. How it is done: Method 1. Escherichia coli β-galactosidase
MPS used as a standard material was dissolved in PBS buffer solution to make 500 uM solution. […] This was followed by the addition of enzyme solution (14 μL of 1 mg/mL). When comparing with human β-galactosidase, 21 μL of enzyme solution (1 mg/mL) was added to achieve the same molar concentration, and the compound of the present invention and MPS each having an amount of 140 μL and […] of the buffer solution (pH 7.4) were mixed. The resulting reaction mixture was incubated at 37° C. Escherichia coli β-galactosidase enzyme (Sigma G4155) was used in the reaction mixture. The enzyme reaction solution was aliquoted at 0 min before the reaction and at a predetermined time after the reaction, respectively, wherein each aliquot was 70 μL. Then, the remaining compound of the present invention or MPS, and a material liberated by the enzyme reaction were quantitatively analyzed by HPLC.

Data set [3] deals with T1, Human β-galactosidase (Homo sapiens, UniProt P16278).
T1 construct: purchased R&D 6464-GH-020
T1 sequence (P16278 29-677): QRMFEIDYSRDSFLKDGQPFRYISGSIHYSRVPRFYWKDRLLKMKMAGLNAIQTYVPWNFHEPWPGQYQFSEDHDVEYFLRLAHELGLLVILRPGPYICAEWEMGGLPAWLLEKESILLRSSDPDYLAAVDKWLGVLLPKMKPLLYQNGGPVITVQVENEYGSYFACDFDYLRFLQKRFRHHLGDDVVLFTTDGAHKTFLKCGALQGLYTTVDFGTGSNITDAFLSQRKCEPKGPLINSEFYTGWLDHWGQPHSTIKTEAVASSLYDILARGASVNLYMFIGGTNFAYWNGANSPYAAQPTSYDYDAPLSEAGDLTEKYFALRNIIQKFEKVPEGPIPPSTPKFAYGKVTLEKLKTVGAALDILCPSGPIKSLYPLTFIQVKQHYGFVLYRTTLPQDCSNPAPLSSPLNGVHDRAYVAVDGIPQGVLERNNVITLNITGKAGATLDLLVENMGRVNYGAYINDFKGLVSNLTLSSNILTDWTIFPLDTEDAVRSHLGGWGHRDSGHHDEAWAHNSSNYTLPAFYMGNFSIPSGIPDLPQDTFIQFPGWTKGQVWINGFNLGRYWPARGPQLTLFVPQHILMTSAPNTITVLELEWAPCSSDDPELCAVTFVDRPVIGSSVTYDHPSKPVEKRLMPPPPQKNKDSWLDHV
Kind of data set: Enzymatic cleavage assay, Method 2. In kind it is biochemical. The following applies: recombinant enzyme, Method 2, pH 7.4, 37° C., HPLC, read-out: TG release t1/2(min). How it is done:
Method 2) Human β-galactosidase
MPS used as a standard material was prepared as a solution to have a concentration of 500 μM in PBS buffer solution. […] Then, 140 μL of 0.1 mg/mL enzyme solution was added thereto, thereby preparing an enzyme reaction solution in a total amount of 700 μL. The reaction mixture was incubated at 37° C. Human β-galactosidase enzyme (R&D 6464-GH-020) was used in the reaction mixture.

[4] abbreviates: MTT, 72 hours, 96 hours, or 144 hours of incubation, read-out: KB cell IC50.

Molecules are shown by their SMILES. Like-named read-outs stand apart in the source and are kept apart here.

Chain of Escherichia coli β-galactosidase (P00722 2-1024): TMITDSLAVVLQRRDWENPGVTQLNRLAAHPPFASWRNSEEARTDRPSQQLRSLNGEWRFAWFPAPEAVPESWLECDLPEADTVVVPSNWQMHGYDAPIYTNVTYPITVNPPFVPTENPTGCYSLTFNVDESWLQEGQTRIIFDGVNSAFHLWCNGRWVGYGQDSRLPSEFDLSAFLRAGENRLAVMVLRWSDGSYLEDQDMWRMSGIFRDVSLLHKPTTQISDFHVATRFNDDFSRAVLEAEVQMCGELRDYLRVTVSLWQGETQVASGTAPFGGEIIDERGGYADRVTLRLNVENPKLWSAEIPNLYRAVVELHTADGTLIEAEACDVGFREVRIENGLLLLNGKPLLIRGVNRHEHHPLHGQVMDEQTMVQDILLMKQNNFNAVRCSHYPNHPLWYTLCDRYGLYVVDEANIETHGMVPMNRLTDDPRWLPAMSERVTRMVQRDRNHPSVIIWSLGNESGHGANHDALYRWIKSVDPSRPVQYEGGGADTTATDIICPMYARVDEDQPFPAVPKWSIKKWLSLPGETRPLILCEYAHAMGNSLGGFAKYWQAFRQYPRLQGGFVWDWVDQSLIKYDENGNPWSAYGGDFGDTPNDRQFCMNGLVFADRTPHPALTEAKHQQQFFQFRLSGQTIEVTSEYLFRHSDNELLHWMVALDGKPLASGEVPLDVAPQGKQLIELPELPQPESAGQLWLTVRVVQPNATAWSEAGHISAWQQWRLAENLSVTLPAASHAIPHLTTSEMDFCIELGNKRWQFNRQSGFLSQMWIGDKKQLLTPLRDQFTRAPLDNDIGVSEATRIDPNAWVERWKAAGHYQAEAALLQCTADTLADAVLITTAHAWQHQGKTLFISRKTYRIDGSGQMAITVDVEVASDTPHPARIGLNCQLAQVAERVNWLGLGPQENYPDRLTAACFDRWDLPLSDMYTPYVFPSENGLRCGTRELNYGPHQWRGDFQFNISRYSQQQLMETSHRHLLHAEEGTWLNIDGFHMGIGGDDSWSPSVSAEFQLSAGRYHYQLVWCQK

As to `COc1cc2[nH]c(C(=O)N3C[C@@H](CCl)c4c3cc(O)c3cccc(C)c43)cc2cc1OCCN(C)C` [CBI-indole, reference compound], in data set [1] (Homo sapiens, KB, read-out: KB cell IC50(nM)), the half-maximal inhibitory concentration (IC50) (as a rule, the concentration needed to halve the response being measured) amounted to 0.07 nM.

Turning to `CC(C)(C)OC(=O)NC(Cc1ccc(OS(=O)(=O)Oc2cc(C(=O)NCCOCCOCCOCCN=[N+]=[N-])ccc2O[C@@H]2O[C@H](CO)[C@H](O)[C@H](O)[C@H]2O)cc1)C(=O)O` (stereo partly shown) [Compound A-2], the half-life at 100 μM in data set [2] was determined as 3.71 ± 0.22 min.

In the case of `CC(C)(C)OC(=O)NC(Cc1ccc(OS(=O)(=O)Oc2ccccc2O[C@@H]2O[C@H](C(=O)O)[C@@H](O)[C@H](O)[C@H]2O)cc1)C(=O)O` (stereo partly shown) [Compound A-3], the half-life at 100 μM in data set [3] came to 10.7 min.

As for `Nc1nc(OCc2ccc(OS(=O)(=O)Oc3ccccc3OC3O[C@H](CO)[C@H](O)[C@H](O)[C@H]3O)cc2)c2ncn([C@@H]3O[C@H](CO)C(O)[C@@H]3O)c2n1` (stereo partly shown) [Compound A-4], the half-life at 100 μM in data set [2] is less than 5 min.

In the case of `CC(C)(C)OC(=O)NC(Cc1ccc(OS(=O)(=O)Oc2cc(CCC(=O)NCCOCCOCCOCCN=[N+]=[N-])ccc2OC2O[C@H](CO)[C@H](O)[C@H](O)[C@H]2O)cc1)C(=O)O` (stereo partly shown) [Compound A-6], the half-life at 100 μM in data set [2] stood at 4.6 ± 1.72 min.

Regarding `O=C(OCCc1cccnc1)OCc1ccc(OS(=O)(=O)Oc2ccccc2O[C@@H]2O[C@H](CO)[C@H](O)[C@H](O)[C@H]2O)cc1` [Compound A-9], the half-life at 100 μM in data set [2] is less than 5 min.

`O=C(Cc1cccnc1)OCc1ccc(OS(=O)(=O)Oc2ccccc2O[C@@H]2O[C@H](CO)[C@H](O)[C@H](O)[C@H]2O)cc1` [Compound A-10]: the half-life at 100 μM in data set [2] was less than 5 min.

For the compound `CC(C)(C)OC(=O)NC(Cc1ccc(OS(=O)(=O)Oc2cc3ccccc3cc2O[C@@H]2O[C@H](CO)[C@H](O)[C@H](O)[C@H]2O)cc1)C(=O)O` (stereo partly shown) [Compound A-12], the half-life at 100 μM in data set [2] was less than 5 min.

As for `Cc1cn([C@H]2CC(O)[C@@H](CO)O2)c(=O)nc1OCc1ccc(OS(=O)(=O)Oc2ccccc2O[C@@H]2O[C@H](CO)[C@H](O)[C@H](O)[C@H]2O)cc1` (stereo partly shown) [Compound A-13], the half-life at 100 μM in data set [2] is less than 5 min.

Take `CC(OCN(CCN(C)C)C(=O)OCc1ccc(OS(=O)(=O)Oc2ccccc2OC2O[C@H](CO)[C@H](O)[C@H](O)[C@H]2O)cc1)c1ccccc1` (stereo partly shown) [Compound A-17]: in data set [2], the half-life at 100 μM was less than 1 min.

In the case of `CC(C)(C)OC(=O)NCCN(CC(=O)O)C(=O)Cn1cnc2c(OCc3ccc(OS(=O)(=O)Oc4ccccc4OC4O[C@H](CO)[C@H](O)[C@H](O)[C@H]4O)cc3)nc(N)nc21` (stereo partly shown) [Compound A-18], the half-life at 100 μM in data set [2] was less than 5 min.

For the compound `CCC(C)[C@H]([C@H](CC(=O)N1CCC[C@@H]1[C@@H](OC)[C@H](C)C(=O)NC(Cc1ccccc1)C(=O)O)OC)N(C)C(=O)[C@H](NC(=O)[C@@H](C(C)C)N(C)C(=O)OCc1ccc(OS(=O)(=O)Oc2cc(C(=O)NCCOCCOCCOCCN=[N+]=[N-])ccc2O[C@H]2O[C@H](CO)[C@H](O)[C@H](O)[C@H]2O)cc1)C(C)C` (stereo partly shown) [Compound B-3], the half-life at 100 μM in data set [2] was less than 10 min.

On to `C[C@]12CC[C@@H]3c4ccc(OS(=O)(=O)Oc5cc(C(=O)NCCOCCOCCOCCN=[N+]=[N-])ccc5O[C@@H]5O[C@H](CO)[C@H](O)[C@H](O)[C@H]5O)cc4CC[C@H]3[C@@H]1CC[C@@H]2O` [Compound B-6], for which the half-life at 100 μM in data set [2] is less than 5 min.

`COc1ccc(/C=C\c2cc(OC)c(OC)c(OC)c2)cc1OS(=O)(=O)Oc1cc(C(=O)NCCOCCOCCOCCN=[N+]=[N-])ccc1O[C@@H]1O[C@H](CO)[C@H](O)[C@H](O)[C@H]1O` [Compound B-7]: the half-life at 100 μM in data set [2] was less than 5 min.

Turning to `CSCC[C@H](NC(=O)[C@H](Cc1ccccc1)NC(=O)CNC(=O)CNC(=O)[C@@H](N)Cc1ccc(OS(=O)(=O)Oc2ccccc2OC2O[C@H](CO)[C@H](O)[C@H](O)[C@H]2O)cc1)C(=O)O` (stereo partly shown) [Compound B-9], the half-life at 100 μM in data set [2] is less than 5 min.

Regarding `CC/C(=C(\c1ccccc1)c1ccc(OCC[N+](C)(C)Cc2c(OC)cc(OS(=O)(=O)Oc3cc(C(=O)NCCOCCOCCOCCN=[N+]=[N-])ccc3OC3O[C@H](CO)[C@H](O)[C@H](O)[C@H]3O)cc2OC)cc1)c1ccccc1` (stereo partly shown) [Compound B-11], the half-life at 100 μM in data set [2] is less than 5 min.

For `CCc1c2c(nc3ccc(OS(=O)(=O)Oc4cc(C(=O)NCCOCCOCCOCCn5cc(CCC(=O)N[C@H](CCCCN)C(=O)NCCOCCOCCNC(=O)CC[C@@H](NC(=O)c6ccc(NCc7cnc8nc(N)[nH]c(=O)c8n7)cc6)C(=O)O)nn5)ccc4O[C@@H]4O[C@H](CO)[C@H](O)[C@H](O)[C@H]4O)cc13)-c1cc3c(c(=O)n1C2)COC(=O)[C@]3(O)CC` [Compound C-2], the IC50 in data set [1] (setting [4]) is greater than 500 nM.

For the compound `NCCCC[C@@H](NC(=O)CCc1cn(CCOCCOCCOCCNC(=O)c2ccc(O[C@@H]3O[C@H](CO)[C@H](O)[C@H](O)[C@H]3O)c(OS(=O)(=O)Oc3cc4c(c5ccccc35)[C@H](CCl)CN4C(=O)CCCC(=O)N3C[C@@H](CCl)c4c3cc(O[C@@H]3O[C@H](CO)[C@H](O)[C@H](O)[C@H]3O)c3ccccc43)c2)nn1)C(=O)NCCOCCOCCNC(=O)CC[C@@H](NC(=O)c1ccc(NCc2cnc3nc(N)[nH]c(=O)c3n2)cc1)C(=O)O` [Compound C-4], in data set [1] (setting [4]), the half-inhibitory concentration (IC50) amounted to 0.02 nM.

For the compound `NCCCC[C@@H](NC(=O)CCc1cn(CCOCCOCCOCCNC(=O)c2ccc(O[C@@H]3O[C@H](CO)[C@H](O)[C@H](O)[C@H]3O)c(OS(=O)(=O)Oc3cc4c(c5ccccc35)[C@H](CCl)CN4C(=O)c3cn4cc(NC(=O)c5ccc(O)cc5)ccc4n3)c2)nn1)C(=O)NCCOCCOCCNC(=O)CC[C@@H](NC(=O)c1ccc(NCc2cnc3nc(N)[nH]c(=O)c3n2)cc1)C(=O)O` [Compound C-6], the IC50 in data set [1] (setting [4]) worked out at 0.45 nM.

Turning to `COc1cc2[nH]c(C(=O)N3C[C@@H](CCl)c4c3cc(OS(=O)(=O)Oc3cc(C(=O)NCCOCCOCCOCCn5cc(CCC(=O)N[C@H](CCCCN)C(=O)NCCOCCOCCNC(=O)CC[C@@H](NC(=O)c6ccc(NCc7cnc8nc(N)[nH]c(=O)c8n7)cc6)C(=O)O)nn5)ccc3O[C@@H]3O[C@H](CO)[C@H](O)[C@H](O)[C@H]3O)c3cccc(C)c43)cc2cc1OCCN(C)C` [Compound C-8], the IC50 in data set [1] (setting [4]) came to 0.12 nM.

Take `CC(=O)Oc1cc2c(c3ccccc13)[C@H](CCl)CN2C(=O)CCCC(=O)N1C[C@@H](CCl)c2c1cc(OS(=O)(=O)Oc1cc(C(=O)NCCOCCOCCOCCn3cc(CCC(=O)N[C@H](CCCCN)C(=O)NCCOCCOCCNC(=O)CC[C@@H](NC(=O)c4ccc(NCc5cnc6nc(N)[nH]c(=O)c6n5)cc4)C(=O)O)nn3)ccc1O[C@@H]1O[C@H](CO)[C@H](O)[C@H](O)[C@H]1O)c1ccccc21` [Compound C-9]: in data set [1] (setting [4]), the IC50 was 0.1 nM.

On to `Cc1cccc2c(O)cc3c(c12)[C@H](CCl)CN3C(=O)c1cn2cc(NC(=O)c3ccc(O)cc3)ccc2n1` [Seco-DUBA, reference compound], for which, in data set [1] (Homo sapiens, KB, MTT, 72 hours, 96 hours, or 144 hours of incubation, read-out: KB cell IC50), the IC50 amounted to 0.18 nM.
